These are literature values, as cited in patent publication USRE48948E1, “Clonidine compounds in a biodegradable polymer” (priority 2008, dated 2022).

The conditions of data set [1]: in vivo.
The next data set concerns post-surgical knee pain. The settings on record: Intra-articular administration of 150 mcg.

Structures can show the parent of a compound that is named as a salt.

On to `Clc1cccc(Cl)c1N=C1NCCN1` [clonidine, 2,6-dichloro-N-2-imidazolidinyldenebenzenamine], for which, in data set [1], the “plasma concentration above which antihypertensive effects become evident” value is “above 500 pg/mL” and the “systemic concentration associated with spinal analgesia” value is on record as “approximately 2 ng/mL”.

Turning to `Clc1cccc(Cl)c1N=C1NCCN1` [clonidine HCL], the “relief of post-surgical knee pain” value in the data set on post-surgical knee pain is “as effective as morphine”.
